From ChEMBL document CHEMBL1201862, “PubChem BioAssay data set” (2004)
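Tested at 5 concentrations; 48 h exposure; 96-well plates; endpoints linearly interpolated, else capped at highest concentration. GI50 marks 50% less growth.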 Activity calls are given as the source filed them. Cut-off read from the data, not from the text of the source: active = GI50 up to about 1.1 µM and inactive = higher.

Legend:
Assay in all cases: NCI anticancer screen, dose series, 48 h
SF-268 = test system: SF-268
HT-29 = test system: HT-29
MOLT-4 = test system: MOLT-4
NCI-H522 = test system: NCI-H522
SK-MEL-2 = test system: SK-MEL-2
T47D = test system: T47D
LOX IMVI = test system: LOX IMVI
NCI/ADR-RES = test system: NCI/ADR-RES
KM12 = test system: KM12
SF-295 = test system: SF-295
SK-MEL-28 = test system: SK-MEL-28
SW-620 = test system: SW-620
UO-31 = test system: UO-31
SK-OV-3 = test system: SK-OV-3
MDA-MB-435 = test system: MDA-MB-435
PC-3 = test system: PC-3
OVCAR-8 = test system: OVCAR-8
SN12C = test system: SN12C
TK-10 = test system: TK-10
HOP-92 = test system: HOP-92
EKVX = test system: EKVX
NCI-H226 = test system: NCI-H226
K562 = test system: K562
HOP-62 = test system: HOP-62
IGROV-1 = test system: IGROV-1
DU-145 = test system: DU-145
OVCAR-3 = test system: OVCAR-3
786-0 = test system: 786-0
UACC-62 = test system: UACC-62
MDA-N = test system: MDA-N
RPMI-8226 = test system: RPMI-8226
Hs-578T = test system: Hs-578T
MDA-MB-231 = test system: MDA-MB-231
NCI-H460 = test system: NCI-H460
U-251 = test system: U-251
SNB-19 = test system: SNB-19
ACHN = test system: ACHN
MCF7 = test system: MCF7
SNB-75 = test system: SNB-75
A549 = test system: A549
HCT-15 = test system: HCT-15
SF-539 = test system: SF-539
A498 = test system: A498
OVCAR-5 = test system: OVCAR-5
HCT-116 = test system: HCT-116
M14 = test system: M14
SR = test system: SR
UACC-257 = test system: UACC-257
SK-MEL-5 = test system: SK-MEL-5
HL-60 = test system: HL-60
COLO 205 = test system: COLO 205
Malme-3M = test system: Malme-3M
HCC 2998 = test system: HCC 2998
OVCAR-4 = test system: OVCAR-4
RXF 393 = test system: RXF 393
NCI-H23 = test system: NCI-H23
CAKI-1 = test system: CAKI-1

CNc1cc(N)ccc1C(=O)N1CCC[C@H]1CO
GI50 (SF-268): > 100 µM (inactive) | GI50 (HT-29): > 100 µM (inactive) | GI50 (MOLT-4): > 100 µM (inactive) | GI50 (NCI-H522): > 100 µM (inactive) | GI50 (SK-MEL-2): > 100 µM (inactive) | GI50 (T47D): > 100 µM (inactive) | GI50 (LOX IMVI): > 100 µM (inactive) | GI50 (NCI/ADR-RES): > 100 µM (inactive) | GI50 (KM12): > 100 µM (inactive) | GI50 (SF-295): > 100 µM (inactive) | GI50 (SK-MEL-28): > 100 µM (inactive) | GI50 (SW-620): > 100 µM (inactive) | GI50 (UO-31): > 100 µM (inactive) | GI50 (SK-OV-3): > 100 µM (inactive) | GI50 (MDA-MB-435): > 100 µM (inactive) | GI50 (PC-3): > 100 µM (inactive) | GI50 (OVCAR-8): > 100 µM (inactive) | GI50 (SN12C): > 100 µM (inactive) | GI50 (TK-10): > 100 µM (inactive) | GI50 (HOP-92): > 100 µM (inactive) | GI50 (EKVX): > 100 µM (inactive) | GI50 (NCI-H226): 27.3 µM (inactive) | GI50 (K562): > 100 µM (inactive) | GI50 (HOP-62): > 100 µM (inactive) | GI50 (IGROV-1): > 100 µM (inactive) | GI50 (DU-145): > 100 µM (inactive) | GI50 (OVCAR-3): > 100 µM (inactive) | GI50 (786-0): > 100 µM (inactive) | GI50 (UACC-62): > 100 µM (inactive) | GI50 (MDA-N): > 100 µM (inactive) | GI50 (RPMI-8226): > 100 µM (inactive) | GI50 (Hs-578T): > 100 µM (inactive) | GI50 (MDA-MB-231): > 100 µM (inactive) | GI50 (NCI-H460): > 100 µM (inactive) | GI50 (U-251): > 100 µM (inactive) | GI50 (SNB-19): > 100 µM (inactive) | GI50 (ACHN): > 100 µM (inactive) | GI50 (MCF7): > 100 µM (inactive) | GI50 (SNB-75): > 100 µM (inactive) | GI50 (A549): > 100 µM (inactive) | GI50 (HCT-15): > 100 µM | GI50 (SF-539): > 100 µM (inactive) | GI50 (A498): > 100 µM (inactive) | GI50 (OVCAR-5): > 100 µM (inactive) | GI50 (HCT-116): > 100 µM (inactive) | GI50 (M14): > 100 µM (inactive) | GI50 (SR): > 100 µM (inactive) | GI50 (UACC-257): > 100 µM (inactive)

CC(C)(C)c1ccc(/C=N/NC(=O)CSCC(=O)N/N=C/c2ccc(C(C)(C)C)cc2)cc1
GI50 (SF-268): 1.9 µM (inactive) | GI50 (SK-MEL-5): 1.87 µM (inactive) | GI50 (HT-29): 1.83 µM (inactive) | GI50 (MOLT-4): 2.12 µM (inactive) | GI50 (NCI-H522): 4.47 µM (inactive) | GI50 (HL-60): 1.72 µM (inactive) | GI50 (SK-MEL-2): 2.28 µM (inactive) | GI50 (T47D): 4.88 µM (inactive) | GI50 (NCI/ADR-RES): 4.26 µM (inactive) | GI50 (KM12): 2.53 µM (inactive) | GI50 (SK-MEL-28): 6.17 µM (inactive) | GI50 (SW-620): 2.59 µM (inactive) | GI50 (UO-31): 3.71 µM (inactive) | GI50 (SK-OV-3): 5.61 µM (inactive) | GI50 (PC-3): 2.8 µM (inactive) | GI50 (OVCAR-8): 2.63 µM (inactive) | GI50 (SN12C): 1.77 µM (inactive) | GI50 (TK-10): 5.21 µM (inactive) | GI50 (HOP-92): 2.49 µM (inactive) | GI50 (EKVX): 2.65 µM (inactive) | GI50 (NCI-H226): 2.09 µM (inactive) | GI50 (K562): 2.55 µM (inactive) | GI50 (HOP-62): 2.96 µM (inactive) | GI50 (IGROV-1): 0.64 µM (active) | GI50 (COLO 205): 1.17 µM (inactive) | GI50 (Malme-3M): 9.1 µM (inactive) | GI50 (DU-145): 5.83 µM (inactive) | GI50 (786-0): 1.95 µM (inactive) | GI50 (UACC-62): 16.4 µM (inactive) | GI50 (RPMI-8226): 2.77 µM (inactive) | GI50 (HCC 2998): 2.73 µM (inactive) | GI50 (Hs-578T): 3.17 µM (inactive) | GI50 (MDA-MB-231): 0.22 µM (active) | GI50 (NCI-H460): 3.61 µM (inactive) | GI50 (OVCAR-4): 3.88 µM (inactive) | GI50 (RXF 393): 2.15 µM (inactive) | GI50 (U-251): 1.61 µM (inactive) | GI50 (SNB-19): 2.93 µM (inactive) | GI50 (ACHN): 2.93 µM (inactive) | GI50 (MCF7): 2.28 µM (inactive) | GI50 (SNB-75): 5.32 µM (inactive) | GI50 (A549): 2.86 µM (inactive) | GI50 (NCI-H23): 2.5 µM (inactive) | GI50 (HCT-15): 4.14 µM | GI50 (SF-539): 2.12 µM (inactive) | GI50 (A498): 1.46 µM (inactive) | GI50 (OVCAR-5): 3.03 µM (inactive) | GI50 (HCT-116): 2.03 µM (inactive) | GI50 (M14): 1.57 µM (inactive) | GI50 (SR): 1.7 µM (inactive) | GI50 (UACC-257): 3.02 µM (inactive)

CC[C@@]1(O)C(=O)OCc2c1cc1n(c2=O)Cc2c-1nc1ccccc1c2/C=N/c1ccccc1N[C@@H]1c2cc3c(cc2[C@@H](c2cc(OC)c(O)c(OC)c2)[C@H]2C(=O)OC[C@@H]21)OCO3
GI50 (SF-268): 0.0285 µM (active) | GI50 (SK-MEL-5): 0.0955 µM (active) | GI50 (MOLT-4): < 0.01 µM (active) | GI50 (CAKI-1): 0.0225 µM (active) | GI50 (T47D): 0.0236 µM (active) | GI50 (LOX IMVI): 0.0138 µM (active) | GI50 (SW-620): 0.132 µM (active) | GI50 (PC-3): 0.284 µM (active) | GI50 (HOP-92): 0.224 µM (active) | GI50 (NCI-H226): 0.0702 µM (active) | GI50 (HOP-62): < 0.0189 µM (active) | GI50 (Malme-3M): 0.394 µM (active) | GI50 (786-0): 0.0213 µM (active) | GI50 (UACC-62): 0.0264 µM (active) | GI50 (RPMI-8226): 0.27 µM (active) | GI50 (NCI-H460): < 0.01 µM (active) | GI50 (U-251): 0.296 µM (active) | GI50 (ACHN): < 0.0145 µM (active) | GI50 (MCF7): < 0.0115 µM (active) | GI50 (SNB-75): 0.051 µM (active) | GI50 (A549): 0.0411 µM (active) | GI50 (HCT-116): 0.0469 µM (active) | GI50 (M14): 0.04 µM (active) | GI50 (UACC-257): 0.412 µM (active)
